BindingDB's records for PubMed 8863838 (Upr Centre, 1996)

What was measured:
[1] = molecular target: Metabotropic glutamate receptor 2 (Homo sapiens, UniProt Q14416)
[2] = molecular target: Metabotropic glutamate receptor 4 (Rattus norvegicus, UniProt P31423)
Sequence of Metabotropic glutamate receptor 4 (P31423 whole entry): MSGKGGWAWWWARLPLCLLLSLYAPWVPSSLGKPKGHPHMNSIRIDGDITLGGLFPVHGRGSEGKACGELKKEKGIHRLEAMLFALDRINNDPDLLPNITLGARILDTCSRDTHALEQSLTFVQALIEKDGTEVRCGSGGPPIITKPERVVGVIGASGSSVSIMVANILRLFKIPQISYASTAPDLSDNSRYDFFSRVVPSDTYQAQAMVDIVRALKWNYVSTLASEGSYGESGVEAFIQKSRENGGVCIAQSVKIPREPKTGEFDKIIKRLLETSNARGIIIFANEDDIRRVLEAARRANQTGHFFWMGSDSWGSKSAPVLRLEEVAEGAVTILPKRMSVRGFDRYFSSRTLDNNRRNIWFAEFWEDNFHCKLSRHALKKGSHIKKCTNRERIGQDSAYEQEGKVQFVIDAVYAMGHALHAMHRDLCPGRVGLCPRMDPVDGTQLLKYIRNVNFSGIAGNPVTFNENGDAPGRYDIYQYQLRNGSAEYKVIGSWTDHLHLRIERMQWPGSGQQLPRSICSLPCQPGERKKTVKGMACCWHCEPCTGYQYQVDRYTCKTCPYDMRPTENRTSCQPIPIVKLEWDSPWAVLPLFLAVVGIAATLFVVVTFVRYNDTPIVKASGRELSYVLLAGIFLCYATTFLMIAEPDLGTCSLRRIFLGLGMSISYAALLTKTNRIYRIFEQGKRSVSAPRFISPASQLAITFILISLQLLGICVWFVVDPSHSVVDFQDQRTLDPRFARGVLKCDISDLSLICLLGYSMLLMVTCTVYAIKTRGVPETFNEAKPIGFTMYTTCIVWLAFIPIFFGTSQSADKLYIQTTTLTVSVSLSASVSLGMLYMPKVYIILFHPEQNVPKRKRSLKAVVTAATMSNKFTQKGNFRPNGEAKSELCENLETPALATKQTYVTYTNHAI

Sequence of Metabotropic glutamate receptor 2 (Q14416 whole entry): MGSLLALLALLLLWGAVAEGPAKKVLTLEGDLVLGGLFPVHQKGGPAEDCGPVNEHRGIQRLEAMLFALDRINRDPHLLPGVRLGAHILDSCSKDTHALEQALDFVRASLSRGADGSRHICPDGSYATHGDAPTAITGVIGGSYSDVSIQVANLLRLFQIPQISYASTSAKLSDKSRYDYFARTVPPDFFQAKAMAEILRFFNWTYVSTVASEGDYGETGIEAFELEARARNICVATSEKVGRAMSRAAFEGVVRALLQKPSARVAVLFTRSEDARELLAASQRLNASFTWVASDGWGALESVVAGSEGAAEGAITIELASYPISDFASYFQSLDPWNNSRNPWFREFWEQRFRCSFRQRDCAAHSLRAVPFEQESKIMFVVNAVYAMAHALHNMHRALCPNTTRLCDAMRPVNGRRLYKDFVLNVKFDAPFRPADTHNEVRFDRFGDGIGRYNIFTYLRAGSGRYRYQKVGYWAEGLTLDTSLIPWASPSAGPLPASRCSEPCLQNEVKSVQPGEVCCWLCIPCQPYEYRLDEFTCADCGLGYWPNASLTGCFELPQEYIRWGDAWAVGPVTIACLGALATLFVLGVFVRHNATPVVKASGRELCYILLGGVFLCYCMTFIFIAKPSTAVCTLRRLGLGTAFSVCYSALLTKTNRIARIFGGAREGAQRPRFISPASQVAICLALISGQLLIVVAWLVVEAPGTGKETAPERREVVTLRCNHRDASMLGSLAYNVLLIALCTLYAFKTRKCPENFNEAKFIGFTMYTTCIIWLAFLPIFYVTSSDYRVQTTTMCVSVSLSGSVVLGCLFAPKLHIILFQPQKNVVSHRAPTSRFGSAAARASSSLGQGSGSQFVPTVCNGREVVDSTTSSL

## N[C@H](C(=O)O)[C@H]1C[C@@H]1C(=O)O [(1S,2S)-2-((S)-Amino-carboxy-methyl)-cyclopropanecarboxylic acid]
[1]
  Ki: 0.49 µM
[2]
  Ki: 8.9 µM

## NC(C(=O)O)c1ccc(C(=O)O)c(O)c1 (stereo not drawn)
[1]
  Ki: > 10 µM

## C[C@](N)(C(=O)O)C1C[C@@H]1C(=O)O (stereo partly drawn) [MCCG-I]
[1]
  Ki: > 10 µM

## NC(C(=O)O)c1cc(=O)[nH]o1 (stereo not drawn) [Amino-(3-hydroxy-isoxazol-5-yl)-acetic acid(Ibotenic acid)]
[2]
  Ki: > 10 µM

## CC(N)(C(=O)O)c1ccc(P(=O)(O)O)cc1 (stereo not drawn)
[1]
  Ki: > 10 µM
[2]
  Ki: > 10 µM

## N[C@@H](CCC(=O)O)C(=O)O [L-Glutamic acid]
[2]
  Ki: > 10 µM

## N[C@@]1(C(=O)O)CC[C@H](CC(=O)O)C1 [(1S,3S)-HOMO-ACPD]
[1]
  Ki: > 10 µM
[2]
  Ki: > 10 µM

## CC(N)(C(=O)O)c1ccc(S(=O)(=O)O)cc1 (stereo not drawn) [NSC_3964410]
[1]
  Ki: > 10 µM
[2]
  Ki: > 10 µM

## N[C@@H](Cn1oc(=O)[nH]c1=O)C(=O)O [2-amino-3-(3,5-dioxo[1,2,4]oxadiazolidin-2-yl)propionic acid]
[1]
  Ki: > 10 µM
[2]
  Ki: > 10 µM

## N[C@@H](CCP(=O)(O)O)C(=O)O
[2]
  Ki: 0.4 µM

## N[C@@]1(C(=O)O)CC[C@H](C(=O)O)C1 [1S, 3R-ACPD]
[1]
  Ki: > 10 µM
[2]
  Ki: > 10 µM

## C[C@@](N)(C(=O)O)c1ccc(C(=O)O)cc1 (racemic)
[1]
  Ki: > 10 µM

## N[C@@H](COP(=O)(O)O)C(=O)O
[2]
  Ki: 2.3 µM

## CC(N)(C(=O)O)c1ccc(-n2cnnn2)cc1 (stereo not drawn) [NSC_5311456]
[1]
  Ki: > 10 µM

## CC(N)(CCP(=O)(O)O)C(=O)O (stereo not drawn) [NSC_1795545]
[1]
  Ki: > 10 µM
[2]
  Ki: > 10 µM

## NC(C(=O)O)c1ccc(C(=O)O)cc1 (stereo not drawn) [4-(Amino-carboxy-methyl)-benzoic acid]
[1]
  Ki: > 10 µM
